Source: ChEMBL document CHEMBL4373743, “Selective apoptosis-inducing activity of synthetic hydrocarbon-stapled SOS1 helix with d-amino acids in H358 cancer cells expressing KRASG12C” (Eur J Med Chem, 2020)
The source made the active and inactive calls. The rule behind the calls is not given here. Bridge positions count the residues as written; N and C are the ends. Square brackets hold non-standard residues; d marks the D form. Peptide text beside a SMILES is read from it. S5 = C=CCCC[C@](C)(N)C(=O)O

Tests used:
NCI-H358 [1] = test: Induction of apoptosis in human NCI-H358 cells harboring KRAS G12C mutant assessed as necrotic cells at 20 uM incubated for 24 hrs by Annexin V-FITC/PI staining based flow cytometric analysis (reference value: 0.28%); type: functional
NCI-H358 [2] = test: Induction of apoptosis in human NCI-H358 cells harboring KRAS G12C mutant assessed as necrotic cells at 2.5 uM incubated for 24 hrs by Annexin V-FITC/PI staining based flow cytometric analysis (reference value: 0.28%); type: functional
GTPase KRas = GTPase KRas (Homo sapiens, UniProt P01116, G12C); test: Binding affinity to biotinylated N-terminal His6-tagged recombinant KRAS G12C mutant (unknown origin) by BLI method
NCI-H358 [3] = test: Induction of apoptosis in human NCI-H358 cells harboring KRAS G12C mutant assessed as late apoptotic cells at 20 uM incubated for 24 hrs by Annexin V-FITC/PI staining based flow cytometric analysis (reference value: 28.2%); type: functional
[4] = system: GTPase KRas (Homo sapiens), P01116 [G12C]; test: Inhibition of mant-GDP bound N-terminal His6-tagged recombinant KRAS G12C mutant (unknown origin) by fluorescence based assay
NCI-H358 [5] = test: Induction of cell cycle arrest in human NCI-H358 cells harboring KRAS G12C mutant assessed as reduction in cyclin B1 protein expression at 40 uM incubated for 24 hrs by Western blot analysis; type: functional, cell-based
A549 [6] = test: Induction of apoptosis in human A549 cells harboring KRAS G12S mutant assessed as early apoptotic cells at 2.5 uM incubated for 24 hrs by Annexin V-FITC/PI staining based flow cytometric analysis (reference value: 6.09%); type: functional
NCI-H358 [7] = test: Induction of cell cycle arrest in human NCI-H358 cells harboring KRAS G12C mutant assessed as reduction in CDK1 protein expression at 40 uM incubated for 24 hrs by Western blot analysis; type: functional, cell-based
NCI-H358 [8] = test: Induction of apoptosis in human NCI-H358 cells harboring KRAS G12C mutant assessed as increase in bax protein level at 40 uM incubated for 24 hrs by Western blot analysis; type: functional, cell-based
A549 [9] = test: Induction of apoptosis in human A549 cells harboring KRAS G12S mutant assessed as viable cells at 2.5 uM incubated for 24 hrs by Annexin V-FITC/PI staining based flow cytometric analysis (reference value: 68.3%); type: functional; conditions: A549, 24 h, read-out: Activity
[10] = system: GTPase KRas (Homo sapiens), P01116 [G12C]; test: Binding affinity to biotinylated N-terminal His6-tagged recombinant KRAS G12C mutant (unknown origin) assessed as association constant by BLI method
NCI-H358 [11] = test: Induction of apoptosis in human NCI-H358 cells harboring KRAS G12C mutant assessed as late apoptotic cells at 10 uM incubated for 24 hrs by Annexin V-FITC/PI staining based flow cytometric analysis (reference value: 28.2%); type: functional
NCI-H358 [12] = test: Induction of apoptosis in human NCI-H358 cells harboring KRAS G12C mutant assessed as viable cells at 20 uM incubated for 24 hrs by Annexin V-FITC/PI staining based flow cytometric analysis (reference value: 67.2%); type: functional; conditions: NCI-H358, 24 h, read-out: Activity
A549 [13] = test: Induction of apoptosis in human A549 cells harboring KRAS G12S mutant assessed as decrease in bcl2 protein level at 40 uM incubated for 24 hrs by Western blot analysis; type: functional, cell-based
NCI-H358 [14] = test: Induction of apoptosis in human NCI-H358 cells harboring KRAS G12C mutant assessed as viable cells at 2.5 uM incubated for 24 hrs by Annexin V-FITC/PI staining based flow cytometric analysis (reference value: 67.2%); type: functional; conditions: NCI-H358, 24 h, read-out: Activity
A549 [15] = test: Induction of apoptosis in human A549 cells harboring KRAS G12S mutant assessed as viable cells at 20 uM incubated for 24 hrs by Annexin V-FITC/PI staining based flow cytometric analysis (reference value: 68.3%); type: functional; conditions: A549, 24 h, read-out: Activity
A549 [16] = test: Induction of apoptosis in human A549 cells harboring KRAS G12S mutant assessed as late apoptotic cells at 10 uM incubated for 24 hrs by Annexin V-FITC/PI staining based flow cytometric analysis (reference value: 25.4%); type: functional
NCI-H358 [17] = test: Induction of apoptosis in human NCI-H358 cells harboring KRAS G12C mutant assessed as decrease in bcl2 protein level at 40 uM incubated for 24 hrs by Western blot analysis; type: functional, cell-based
A549 [18] = test: Induction of apoptosis in human A549 cells harboring KRAS G12S mutant assessed as late apoptotic cells at 20 uM incubated for 24 hrs by Annexin V-FITC/PI staining based flow cytometric analysis (reference value: 25.4%); type: functional
NCI-H358 [19] = test: Induction of apoptosis in human NCI-H358 cells harboring KRAS G12C mutant incubated for 24 hrs by Annexin V-FITC/PI staining based flow cytometric analysis; type: functional, cell-based
NCI-H358 [20] = test: Induction of apoptosis in human NCI-H358 cells harboring KRAS G12C mutant assessed as early apoptotic cells at 20 uM incubated for 24 hrs by Annexin V-FITC/PI staining based flow cytometric analysis (reference value: 4.34%); type: functional
A549 [21] = test: Induction of apoptosis in human A549 cells harboring KRAS G12S mutant assessed as increase in caspase3 protein level at 40 uM incubated for 24 hrs by Western blot analysis; type: functional, cell-based
A549 [22] = test: Induction of cell cycle arrest in human A549 cells harboring KRAS G12S mutant assessed as as reduction in cyclin B1 protein expression at 40 uM incubated for 24 hrs by Western blot analysis; type: functional, cell-based
A549 [23] = test: Induction of apoptosis in human A549 cells harboring KRAS G12S mutant assessed as late apoptotic cells at 2.5 uM incubated for 24 hrs by Annexin V-FITC/PI staining based flow cytometric analysis (reference value: 25.4%); type: functional
NCI-H358 [24] = test: Antiproliferative activity against human NCI-H358 cells harboring KRAS G12C mutant incubated for 24 hrs by MTT assay; type: functional, cell-based
A549 [25] = test: Induction of cell cycle arrest in human A549 cells harboring KRAS G12S mutant assessed as accumulation at G2/M phase at 10 to 40 uM incubated for 24 hrs by PI staining based flow cytometric analysis; type: functional
NCI-H358 [26] = test: Induction of apoptosis in human NCI-H358 cells harboring KRAS G12C mutant assessed as necrotic cells at 10 uM incubated for 24 hrs by Annexin V-FITC/PI staining based flow cytometric analysis (reference value: 0.28%); type: functional
A549 [27] = test: Induction of apoptosis in human A549 cells harboring KRAS G12S mutant assessed as necrotic cells at 10 uM incubated for 24 hrs by Annexin V-FITC/PI staining based flow cytometric analysis (reference value: 0.16%); type: functional
A549 [28] = test: Induction of apoptosis in human A549 cells harboring KRAS G12S mutant assessed as increase in bax protein level at 40 uM incubated for 24 hrs by Western blot analysis; type: functional, cell-based
NCI-H358 [29] = test: Induction of cell cycle arrest in human NCI-H358 cells harboring KRAS G12C mutant assessed as accumulation at G2/M phase incubated for 24 hrs by PI staining based flow cytometric analysis; type: functional
NCI-H358 [30] = test: Induction of apoptosis in human NCI-H358 cells harboring KRAS G12C mutant assessed as early apoptotic cells at 10 uM incubated for 24 hrs by Annexin V-FITC/PI staining based flow cytometric analysis (reference value: 4.34%); type: functional

GTPase KRas (Homo sapiens), P01116 [G12C], sequence (P01116 whole entry G12C): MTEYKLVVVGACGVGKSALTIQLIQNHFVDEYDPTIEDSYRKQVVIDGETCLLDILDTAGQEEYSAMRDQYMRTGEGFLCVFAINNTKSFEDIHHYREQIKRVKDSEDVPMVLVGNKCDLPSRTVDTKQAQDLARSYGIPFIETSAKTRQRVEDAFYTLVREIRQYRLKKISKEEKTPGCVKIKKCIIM
GTPase KRas, sequence (P01116 whole entry G12C): as above

Kd (GTPase KRas): 870 nM
inhibition [4]: Dose-dependent effect
Ka [10]: 7.3 ×10³ /M.s
SMILES: CC[C@H](C)[C@H](NC(=O)CNC(=O)[C@H](Cc1ccccc1)NC(=O)[C@H](Cc1ccccc1)NC(=O)[C@H](CCCNC(=N)N)NC(=O)[C@H](CCCNC(=N)N)NC(C)=O)C(=O)N[C@@]1(C)CCC/C=C\CCC[C@@](C)(C(=O)N[C@@H](CC(C)C)C(=O)N[C@@H](CCCCN)C(=O)N[C@H](C(=O)N[C@@H](CCC(=O)O)C(=O)N[C@@H](CCC(=O)O)C(=O)NCC(=O)N[C@@H](CC(N)=O)C(=O)O)[C@@H](C)O)NC(=O)[C@H](CC(N)=O)NC(=O)[C@H](CC(=O)O)NC(=O)[C@H]([C@@H](C)O)NC(=O)[C@H](CC(C)C)NC(=O)[C@H](CC(=O)O)NC1=O (Ac-RRFFGI[S5]DLTDN[S5]LKTEEGN-OH; staple (Z) 7-13)
Activity (NCI-H358 [1]): 0.21%
Activity (NCI-H358 [2]): 0.14%
Activity (NCI-H358 [3]): 46.6%
Activity (NCI-H358 [5]): Active
Activity (A549 [6]): 2.65%
Activity (NCI-H358 [7]): Active
Activity (NCI-H358 [8]): Active
viability at 2.5 µM (A549 [9]): 60.4%
Activity (NCI-H358 [11]): 40.8%
viability at 20 µM (NCI-H358 [12]): 46.7%
Activity (A549 [13]): inactive
viability at 2.5 µM (NCI-H358 [14]): 62.7%
viability at 20 µM (A549 [15]): 67.3%
Activity (A549 [16]): 30.1%
Activity (NCI-H358 [17]): Active
Activity (A549 [18]): 30.7%
Activity (NCI-H358 [19]): Dose-dependent effect
Activity (NCI-H358 [20]): 6.49%
Activity (A549 [21]): inactive
Activity (A549 [22]): inactive
Activity (A549 [23]): 38.5%
Activity (NCI-H358 [24]): Dose-dependent effect
Activity (A549 [25]): inactive
Activity (NCI-H358 [26]): 0.26%
Activity (A549 [27]): 0.5%
Activity (A549 [28]): inactive
Activity (NCI-H358 [29]): Dose-dependent effect
Activity (NCI-H358 [30]): 6.37%
